According to US6114334A, “Piperazine derivatives as therapeutic agents” (Knoll Aktiengesellschaft, priority 1995, dated 2000):

Assays:
5-HT1A receptors = target: T1, 5-HT1A receptors (Rattus norvegicus, UniProt P19327); assay: inhibition of [3H]8-OH-DPAT binding to 5-HT1A receptors in vitro; set-up: species or system rat (male Sprague-Dawley, hippocampal tissue); settings: rat hippocampus, [3H]8-OH-DPAT 2 nM, 25° C., 30 min
T1 sequence (P19327 1-422): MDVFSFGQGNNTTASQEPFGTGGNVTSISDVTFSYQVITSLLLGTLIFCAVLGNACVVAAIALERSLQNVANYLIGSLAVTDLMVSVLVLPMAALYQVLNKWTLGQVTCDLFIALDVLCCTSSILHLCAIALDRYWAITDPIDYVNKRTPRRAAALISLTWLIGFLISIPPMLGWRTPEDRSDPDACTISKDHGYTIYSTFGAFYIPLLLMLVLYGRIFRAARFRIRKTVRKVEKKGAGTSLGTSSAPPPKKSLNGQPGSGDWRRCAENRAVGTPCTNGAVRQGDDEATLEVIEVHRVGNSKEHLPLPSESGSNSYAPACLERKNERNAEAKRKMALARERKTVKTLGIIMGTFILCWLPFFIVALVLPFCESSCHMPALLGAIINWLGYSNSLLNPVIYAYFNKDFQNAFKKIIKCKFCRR
Method: Hippocampal tissue from the brains of male Sprague-Dawley rats (Charles River; weight range 150-250 g) was homogenised in ice-cold 50 mM Tris-HCl buffer (pH 7.7 when measured at 25° C., 1:40 w/v) and centrifuged at 30,000 g at 4° C. for 10 minutes. The pellet was rehomogenised in the same buffer, incubated at 37° C. for 10 minutes and centrifuged at 30,000 g at 4° C. for 10 minutes. The final pellet was resuspended in 50 mM Tris-HCl buffer (pH 7.7) containing 4 mM CaCl2. 0.1% L-ascorbic acid and 10 μM pargyline hydrochloride (equivalent to 6.25 mg wet weight of tissue/ml) and used immediately in the binding assay. Aliquots (400 μl; equivalent to 2.5 mg wet weight of tissue/tube) of this suspension were added to tubes containing the ligand (50 μl; 2 nM) and distilled water (50 μl; total binding) or 5-HT (50 μl; 10 μM; non-specific binding) or test compound (50 μl; at a single concentration of 10^-6 M or at 10 concentrations ranging from 10^-11 -10^-3 M). The ligand was [^3 H]8-hydroxy-2-(dipropylamino)tetralin ([^3 H]8-OH-DPAT) and the mixture was incubated at 25° C. for 30 minutes before the incubation was terminated by rapid filtration.

α2A-adrenoceptors = target: T2, α2A-adrenoceptors (Homo sapiens, UniProt P08913); assay: inhibition of tritiated RX 821002 binding to α2A-adrenoceptors in vitro; set-up: species or system human (cerebral cortex post-mortem); settings: human cerebral cortex; for inhibition at 1 µM: 10^-6 M, [3H]RX 821002, read-out: % displacement at 10^-6 M, α2A
T2 construct: Human cerebral cortex obtained at post-mortem; from tissue; host or cells: human cerebral cortex, post-mortem
T2 sequence (P08913 1-465): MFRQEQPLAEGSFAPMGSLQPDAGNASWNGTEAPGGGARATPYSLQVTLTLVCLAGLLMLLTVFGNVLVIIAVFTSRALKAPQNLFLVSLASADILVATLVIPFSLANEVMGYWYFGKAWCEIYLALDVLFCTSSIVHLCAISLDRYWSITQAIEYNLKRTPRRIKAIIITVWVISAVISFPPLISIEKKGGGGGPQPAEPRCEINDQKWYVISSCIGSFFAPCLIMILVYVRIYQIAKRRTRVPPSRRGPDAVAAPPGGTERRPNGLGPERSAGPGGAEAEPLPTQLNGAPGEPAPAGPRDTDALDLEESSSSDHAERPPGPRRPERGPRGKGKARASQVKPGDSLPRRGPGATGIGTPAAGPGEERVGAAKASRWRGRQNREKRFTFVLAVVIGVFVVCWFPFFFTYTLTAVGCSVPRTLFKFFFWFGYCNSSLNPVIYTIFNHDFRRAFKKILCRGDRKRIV
Method: Human cerebral cortex obtained at post-mortem was homogenised in ice-cold 0.25M sucrose (1:30 w/v) and centrifuged at 1,000 g at 4° C. for 12 minutes. The supernatant was stored on ice and the pellet was rehomogenised in 0.25M sucrose (1:15 w/v) and centrifuged at 850 g at 4° C. for 12 minutes. Combined supernatants were diluted with 5 mM Tris-HCl (pH 7.5) containing 5 mM ethylenediamine tetraacetic acid (EDTA), readjusted to pH 7.5 (at 25° C.) with 1M sodium hydroxide to 1:80 w/v, and centrifuged at 11,000 g at 4° C. for 10 minutes. The resulting pellet was resuspended in 50 mM Tris-HCl (pH 7.5) containing 5.68 mM L-ascorbic acid and 0.5 mM EDTA, readjusted to pH 7.5 (at 25° C.) with 1M sodium hydroxide to 1:80 w/v, and centrifuged at 11,000 g for 10 minutes. The pellet was stored at -80° C. On the day of the assay the pellet was thawed, resuspended in 50 mM Tris-HCl (pH 7.5) containing 5.68 mM L-ascorbic acid and 5 mM EDTA to 1:80 w/v and centrifuged at 11,000 g for 10 minutes. The final pellet was resuspended in 50 mM Tris-HCl (pH 7.5) containing 5.68 mM L-ascorbic acid and 5 mM EDTA (equivalent to 25 mg wet weight of tissue/ml).
Aliquots (400 μl; equivalent to 10 mg wet weight of tissue/tube) of this suspension were added to tubes containing the ligand (50 μl; 0.2 nM) and distilled water (50 μl; total binding) or phentolamine (50 μl; 50 μM; non-specific binding) or test compound (50 μl; at a single concentration of 10^-6 M or at 10 concentrations ranging from 10^-11 -10^-3 M). The ligand was tritiated RX 821002 (2-(2-methoxy-1,4-[6,7(n)-^3 H]benzodioxan-2-yl)-2-imidazoline) and the mixture was incubated at 0° C. for 75 minutes before the incubation was terminated by rapid filtration.
The filters were washed with ice-cold Tris-HCl buffer and dried. The filters were punched out into vials, scintillation fluid added and radioactivity determined by liquid scintillation counting. The percentage displacement of specific binding of the tritiated ligand was calculated for the single concentration (10^-6 M) of test compound. Displacement curves were then produced for those compounds which displaced ≥50% of specific binding of the tritiated ligand at 10^-6 M using a range of concentrations of the compound. The concentration which gave 50% inhibition of specific binding (IC50) was obtained from the curve. The inhibition coefficient Ki was then calculated using the formula [formula] in which [ligand] is the concentration of the tritiated ligand used and KD is the equilibrium dissociation constant for the ligand.

α2D-adrenoceptors = target: T3, α2D-adrenoceptors (Rattus norvegicus, UniProt P22909); assay: inhibition of tritiated idazoxan binding to α2D-adrenoceptors in vitro; set-up: species or system rat (male Charles River CD, frontal cortical tissue); settings: rat frontal cortex; for inhibition at 1 µM: 10^-6 M, [3H]idazoxan, read-out: % displacement at 10^-6 M, α2D; for Ki: [3H]idazoxan 1 nM, 0° C., 75 min
T3 sequence (P22909 1-465): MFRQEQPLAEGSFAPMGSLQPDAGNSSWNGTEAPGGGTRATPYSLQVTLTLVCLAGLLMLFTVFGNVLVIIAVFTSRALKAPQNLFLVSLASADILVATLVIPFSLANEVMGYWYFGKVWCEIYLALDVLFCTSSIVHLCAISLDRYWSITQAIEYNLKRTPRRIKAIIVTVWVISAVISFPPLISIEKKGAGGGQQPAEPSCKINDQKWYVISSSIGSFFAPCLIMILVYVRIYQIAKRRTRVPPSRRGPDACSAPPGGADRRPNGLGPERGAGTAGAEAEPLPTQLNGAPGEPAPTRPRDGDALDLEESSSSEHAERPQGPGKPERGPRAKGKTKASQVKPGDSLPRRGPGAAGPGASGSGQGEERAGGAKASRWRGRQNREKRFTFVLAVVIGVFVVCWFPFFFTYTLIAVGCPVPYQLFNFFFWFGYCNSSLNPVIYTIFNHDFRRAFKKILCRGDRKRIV

α1-adrenoceptors = assay: inhibition of 7-methoxy-[3H]prazosin binding to α1-adrenoceptors in vitro; set-up: species or system rat (male Charles River CD, whole cortical tissue); settings: rat whole cortex, 7-methoxy-[3H]prazosin 0.1 nM, 30° C., 30 min
In short: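 Male CD rat cortical membranes in 50 mM Tris-HCl pH 7.6 were incubated 30 min at 30 °C with 7-methoxy-[3H]prazosin (0.1 nM as added), with 5 μM phentolamine (as added) defining non-specific binding, then filtered and counted. Compounds were tested at 10^-6 M for % displacement or at 10^-11–10^-3 M for IC50, and Ki was derived from IC50, ligand concentration and KD.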

D2 dopamine receptors = D2 dopamine receptors (Rattus norvegicus, UniProt P61169); assay: inhibition of tritiated (S)-sulpiride binding to D2 dopamine receptors in vitro; set-up: species or system rat (male Charles River CD, striatal tissue); settings: rat striatum, tritiated (S)-sulpiride 1 nM, 4° C., 40 min
D2 dopamine receptors, sequence (P61169 whole entry): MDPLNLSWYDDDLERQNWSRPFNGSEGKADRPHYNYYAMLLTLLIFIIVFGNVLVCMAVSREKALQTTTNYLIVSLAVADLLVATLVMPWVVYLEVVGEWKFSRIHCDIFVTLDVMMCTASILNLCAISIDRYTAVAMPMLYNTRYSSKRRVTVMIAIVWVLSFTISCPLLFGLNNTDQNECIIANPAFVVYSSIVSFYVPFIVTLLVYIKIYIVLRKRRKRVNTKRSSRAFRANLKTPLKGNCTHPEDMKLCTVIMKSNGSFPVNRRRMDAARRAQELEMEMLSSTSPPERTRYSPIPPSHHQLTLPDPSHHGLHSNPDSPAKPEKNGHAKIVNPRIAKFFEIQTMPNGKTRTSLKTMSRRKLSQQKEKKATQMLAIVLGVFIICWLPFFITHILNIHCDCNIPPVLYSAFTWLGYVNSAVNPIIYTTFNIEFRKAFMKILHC

Compound	Ki (5-HT1A receptors) [nM]	inhibition at 1 µM (α2A-adrenoceptors) [%]	inhibition at 1 µM (α2D-adrenoceptors) [%]	Ki (α1-adrenoceptors) [nM]	Ki (D2 dopamine receptors) [nM]	Ki (α2D-adrenoceptors) [nM]	Ki (α2A-adrenoceptors; [3H]RX 821002 0.2 nM, 0° C., 75 min) [nM]
CC(C)Oc1ccccc1N1CCN(Cc2c(C3CCC3)nn(C)c2N)CC1 [Example 28, 5-Amino-3-cyclobutyl-4-[4-(2-isopropoxyphenyl)piperazin-1-ylmethyl]-1-methylpyrazole]	40	99	93	27	25	–	–
CC(C)Oc1ccccc1N1CCN(Cc2c(C3CC3)nn(-c3ccccc3)c2N)CC1 [Example 23, 5-Amino-3-cyclopropyl-4-[4-(2-isopropoxyphenyl)piperazin-1-ylmethyl]-1-phenylpyrazole]	22	100	–	17	109	1.7	–
N#Cc1ccc(-n2nc(C3CC3)c(CN3CCN(c4cccc5c4OCCO5)CC3)c2N)cc1 [Example 32, 4-{5-Amino-4-[4-(1,4-benzodioxan-5-yl)piperazin-1-ylmethyl]-3-cyclopropylpyrazol-1-yl}benzonitrile]	129	91	92	44	320	–	–
Nc1c(CN2CCN(c3cccc4c3OCCO4)CC2)c(C2CC2)nn1-c1ccccc1 [Example 10, 5-amino-4-[4-(1,4-benzodioxan-5-yl)piperazin-1-ylmethyl]-3-cyclopropyl-1-phenylpyrazole]	25	–	–	31	374	162	2
CCCn1c(N)c(CN2CCN(c3cccc4c3OCCO4)CC2)c(=O)n1-c1ccccc1 [Example 5, 3-Amino-4-[4-(1,4-benzodioxan-5-yl)piperazin-1-ylmethyl]-1-phenyl-2-propyl-3-pyrazolin-5-one]	16	73	–	41	176	121	–
COc1ccccc1N1CCN(CC2(C)N=C(c3cccnc3)NC2=O)CC1 (stereo not shown) [Example 36, 4-[4-(2-methoxyphenyl)piperazin-1-ylmethyl]-4-methyl-2-(3-pyridyl)-2-imidazolin-5-one]	134	66	–	396	297	127	–
CC1(CN2CCN(c3cccc(Cl)c3)CC2)N=C(c2ccccc2)NC1=O (stereo not shown) [Example 42, 4-[4-(3-Chlorophenyl)piperazin-1-ylmethyl]-4-methyl-2-phenyl-2-imidazolin-5-one]	213	84	–	> 500	> 500	226	–
Nc1c(CN2CCN(c3cccc4c3OCCO4)CC2)c(C2CC2)nn1-c1ncccn1 [Example 35, 5-Amino-4-[4-(1,4-benzodioxan-5-yl)piperazin-1-ylmethyl]-3-cyclopropyl-1-(2-pyrimidinyl)pyrazole]	2.3	100	96	82	184	–	–
Cn1nc(-c2ccccc2)c(CN2CCN(c3cccc4c3OCCO4)CC2)c1N [Example 13, 5-Amino-4-[4-(1,4-benzodioxan-5-yl)piperazin-1-ylmethyl]-1-methyl-3-phenylpyrazole]	21	95	–	57	> 500	156	–

More lines, in order of falling Ki (5-HT1A receptors), values ahead:

Ki (5-HT1A receptors) [nM]	inhibition at 1 µM (α2A-adrenoceptors) [%]	inhibition at 1 µM (α2D-adrenoceptors) [%]	Ki (α1-adrenoceptors) [nM]	Ki (D2 dopamine receptors) [nM]	Ki (α2D-adrenoceptors) [nM]	Ki (α2A-adrenoceptors; [3H]RX 821002 0.2 nM, 0° C., 75 min) [nM]	Compound
256	100	–	38	> 500	4.9	–	Cc1ccccc1N1CCN(Cc2c(C3CC3)nn(-c3ccccc3)c2N)CC1 [Example 19, 5-Amino-3-cyclopropyl-4-[4-(2-methylphenyl)piperazin-1-ylmethyl]-1-phenylpyrazole]
118	96	87	102	88	–	–	Nc1c(CN2CCN(c3cccc4c3OCCO4)CC2)c(C2CC2)nn1-c1ccncc1 [Example 34, 5-Amino-4-[4-(1,4-benzodioxan-5-yl)piperazin-1-ylmethyl]-3-cyclopropyl-1-(4-pyridyl)pyrazole]
93	69	–	271	268	112	–	COc1ccccc1N1CCN(CC2(C)N=C(c3ccccc3)NC2=O)CC1 (stereo not shown) [Example 37, 4-[4-(2-methoxyphenyl)piperazin-1-ylmethyl]-4-methyl-2-phenyl-2-imidazolin-5-one]
24	91	–	19	177	165	–	Cn1c(N)c(CN2CCN(c3cccc4ccoc34)CC2)c(=O)n1-c1ccccc1 [Example 7, 3-Amino-4-[4-(7-benzo[b]furanyl)piperazin-1-ylmethyl]-2-methyl-1-phenyl-3-pyrazolin-5-one]
15	76	54	> 500	345	–	–	C=CCN1C(=O)C(C)(CN2CCN(c3cccc4c3OCCO4)CC2)N=C1c1cccnc1 (stereo not shown) [Example 44, 1-allyl-4-[4-(1,4-benzodioxan-5-yl)piperazin-1-ylmethyl]-4-methyl-2-(3-pyridyl)-2-imidazolin-5-one]
